Laboratory results as given in the supplement of paper PMC10307832.

Legend:
Test in all cases: relative viability (nuclei count vs DMSO), 5 days (fraction); higher = more cells survive
IMD-0354 + Pemetrexed = compound: O=C(Nc1cc(C(F)(F)F)cc(C(F)(F)F)c1)c1cc(Cl)ccc1O [IMD-0354] + Nc1nc2[nH]cc(CCc3ccc(C(=O)N[C@@H](CCC(=O)O)C(=O)O)cc3)c2c(=O)[nH]1 [Pemetrexed] (partner 0.2 µM)
Summary of the method: (§1)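 A single step with final 0.05% Triton X-100, 1% formaldehyde and 1 ug/ml Hoechst fixed the cells and stained nuclei 5 days after treatment. Lung cancer cell lines in 1536-well plates had been treated by pin tool the day after seeding with one drug alone or a fixed anchor-drug dose plus five library-drug doses (not always all listed) in √10 steps, and nuclei were counted on 4× images. Relative viability is the ratio of nuclei in treated wells to nuclei in vehicle wells, taken as the median of duplicate plates.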

CX-5461 + Dasatinib = compound: Cc1cnc(CNC(=O)c2c(=O)c3ccc(N4CCCN(C)CC4)nc3n3c2sc2ccccc23)cn1 [CX-5461] + Cc1nc(Nc2ncc(C(=O)Nc3c(C)cccc3Cl)s2)cc(N2CCN(CCO)CC2)n1 [Dasatinib] (partner 0.075 µM)
Summary of the method: as §1

IMD-0354 + Tozasertib = compound: O=C(Nc1cc(C(F)(F)F)cc(C(F)(F)F)c1)c1cc(Cl)ccc1O [IMD-0354] + Cc1cc(Nc2cc(N3CCN(C)CC3)nc(Sc3ccc(NC(=O)C4CC4)cc3)n2)n[nH]1 [Tozasertib] (partner 0.1 µM)
Summary of the method: as §1

IMD-0354 + Bortezomib = compound: O=C(Nc1cc(C(F)(F)F)cc(C(F)(F)F)c1)c1cc(Cl)ccc1O [IMD-0354] + CC(C)C[C@H](NC(=O)[C@H](Cc1ccccc1)NC(=O)c1cnccn1)B(O)O [Bortezomib] (partner 0.002 µM)
Summary of the method: as §1

Cell Line | relative viability (IMD-0354 + Pemetrexed; first compound 0.04 µM) | relative viability (IMD-0354 + Pemetrexed; first compound 0.1265 µM) | relative viability (IMD-0354 + Pemetrexed; first compound 0.4 µM) | relative viability (IMD-0354 + Pemetrexed; first compound 1.265 µM) | relative viability (IMD-0354 + Pemetrexed; first compound 4 µM) | relative viability (CX-5461 + Dasatinib; first compound 0.01 µM) | relative viability (CX-5461 + Dasatinib; first compound 0.03162 µM) | relative viability (CX-5461 + Dasatinib; first compound 0.1 µM) | relative viability (CX-5461 + Dasatinib; first compound 0.3162 µM) | relative viability (CX-5461 + Dasatinib; first compound 1 µM) | relative viability (IMD-0354 + Tozasertib; first compound 0.04 µM) | relative viability (IMD-0354 + Tozasertib; first compound 0.1265 µM) | relative viability (IMD-0354 + Tozasertib; first compound 0.4 µM) | relative viability (IMD-0354 + Tozasertib; first compound 1.265 µM) | relative viability (IMD-0354 + Bortezomib; first compound 0.04 µM) | relative viability (IMD-0354 + Bortezomib; first compound 0.1265 µM) | relative viability (IMD-0354 + Bortezomib; first compound 0.4 µM) | relative viability (IMD-0354 + Bortezomib; first compound 1.265 µM) | relative viability (IMD-0354 + Bortezomib; first compound 4 µM) | relative viability (IMD-0354 + Tozasertib; first compound 4 µM)
NCI-H647 | 0.182 | 0.148 | 0.185 | 0.111 | 0.0986 | 0.18 | 0.175 | 0.161 | 0.162 | 0.0641 | 0.441 | 0.379 | 0.223 | 0.169 | 1.15 | 1.08 | 0.439 | 0.169 | 0.128 | 
NCI-H650 | 1.05 | 0.97 | 0.793 | 0.436 | 0.169 | 0.423 | 0.431 | 0.448 | 0.482 | 0.389 | 0.834 | 0.745 | 0.644 | 0.36 | 0.413 | 0.748 | 0.606 | 0.49 | 0.355 | 0.2
NCI-H661 | 0.955 | 0.921 | 0.484 | 0.331 | 0.207 | 1.06 | 0.863 | 0.9 |  | 0.4 | 0.319 | 0.344 | 0.34 | 0.273 | 0.968 | 0.718 | 0.719 | 0.925 | 0.276 | 0.257
NCI-H838 | 0.25 | 0.229 | 0.161 | 0.191 | 0.167 | 0.283 | 0.292 | 0.38 | 0.241 | 0.243 | 0.299 | 0.286 | 0.2 | 0.191 | 0.858 | 0.744 | 0.425 | 0.333 | 0.254 | 0.172
NCI-H1355 | 1.07 | 1.1 | 0.673 | 0.527 | 0.216 | 0.81 | 0.792 | 0.665 | 0.449 | 0.389 | 0.598 | 0.528 | 0.594 | 0.271 | 1.42 | 1.24 | 0.833 | 0.224 | 0.256 | 0.258
NCI-H1437 | 0.321 | 0.338 | 0.221 | 0.191 | 0.202 | 0.434 | 0.373 | 0.431 | 0.32 | 0.368 | 0.457 | 0.394 | 0.289 | 0.262 | 0.486 | 0.383 | 0.332 | 0.0977 | 0.196 | 0.224
NCI-H1650 | 0.364 | 0.352 | 0.309 | 0.259 | 0.12 | 0.355 | 0.326 | 0.195 | 0.305 | 0.14 | 0.47 | 0.362 | 0.253 | 0.259 | 0.205 | 0.196 | 0.189 | 0.166 | 0.197 | 0.19
NCI-H1651 | 0.653 | 0.647 | 0.38 | 0.14 | 0.116 | 0.378 | 0.254 |  | 0.178 | 0.112 | 0.662 | 0.658 | 0.317 | 0.363 | 0.828 | 0.968 | 0.404 | 0.516 | 0.153 | 0.0982
